From patent publication US10562898B2, “Substituted benzenesulfonamides as inhibitors of alpha-4 beta-7 integrin activity” (EA PHARMA CO., LTD., priority 2016, dated 2020)
pIC50: −log10 of the molar value.

target: T1, α4β7 integrin (Homo sapiens, UniProt P13612+P26010); test: MAdCAM-1/α4β7 integrin binding inhibitory activity evaluation test in presence of serum; format: cell-based; details: RPMI-8866 cells, recombinant mouse MAdCAM-1/Fc, 50% human serum; read-out: α4β7 Serum Added IC50
T1 construct: a cell line RPMI-8866, which is known to express α4β7 integrin; endogenous in cells; host or cells: RPMI-8866 (human B cell line)
T1 sequence (P13612 34-1032): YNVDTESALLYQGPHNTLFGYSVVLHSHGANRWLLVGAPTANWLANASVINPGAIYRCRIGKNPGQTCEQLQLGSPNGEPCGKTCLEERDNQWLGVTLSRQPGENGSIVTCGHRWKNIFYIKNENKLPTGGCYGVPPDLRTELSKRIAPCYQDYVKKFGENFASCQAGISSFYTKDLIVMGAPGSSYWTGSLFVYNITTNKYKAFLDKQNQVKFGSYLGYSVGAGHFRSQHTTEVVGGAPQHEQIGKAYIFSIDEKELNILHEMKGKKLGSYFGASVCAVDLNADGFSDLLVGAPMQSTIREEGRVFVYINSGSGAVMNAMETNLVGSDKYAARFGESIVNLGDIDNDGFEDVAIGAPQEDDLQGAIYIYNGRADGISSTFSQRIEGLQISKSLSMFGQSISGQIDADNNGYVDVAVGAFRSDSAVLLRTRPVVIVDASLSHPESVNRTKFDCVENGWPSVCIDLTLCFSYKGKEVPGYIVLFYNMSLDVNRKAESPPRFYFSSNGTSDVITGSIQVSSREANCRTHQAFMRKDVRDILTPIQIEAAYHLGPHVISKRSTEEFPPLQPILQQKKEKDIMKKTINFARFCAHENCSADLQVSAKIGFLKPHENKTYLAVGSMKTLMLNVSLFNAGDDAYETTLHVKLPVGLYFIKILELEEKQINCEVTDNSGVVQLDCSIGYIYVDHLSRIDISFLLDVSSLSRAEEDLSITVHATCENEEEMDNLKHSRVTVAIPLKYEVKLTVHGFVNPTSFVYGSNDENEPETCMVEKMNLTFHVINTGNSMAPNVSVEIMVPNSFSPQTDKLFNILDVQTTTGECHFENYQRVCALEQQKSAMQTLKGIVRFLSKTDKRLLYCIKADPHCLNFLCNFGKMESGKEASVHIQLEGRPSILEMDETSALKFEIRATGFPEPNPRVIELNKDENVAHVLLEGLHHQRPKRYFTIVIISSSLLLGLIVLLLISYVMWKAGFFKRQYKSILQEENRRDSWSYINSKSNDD
T1 sequence (P26010 20-798): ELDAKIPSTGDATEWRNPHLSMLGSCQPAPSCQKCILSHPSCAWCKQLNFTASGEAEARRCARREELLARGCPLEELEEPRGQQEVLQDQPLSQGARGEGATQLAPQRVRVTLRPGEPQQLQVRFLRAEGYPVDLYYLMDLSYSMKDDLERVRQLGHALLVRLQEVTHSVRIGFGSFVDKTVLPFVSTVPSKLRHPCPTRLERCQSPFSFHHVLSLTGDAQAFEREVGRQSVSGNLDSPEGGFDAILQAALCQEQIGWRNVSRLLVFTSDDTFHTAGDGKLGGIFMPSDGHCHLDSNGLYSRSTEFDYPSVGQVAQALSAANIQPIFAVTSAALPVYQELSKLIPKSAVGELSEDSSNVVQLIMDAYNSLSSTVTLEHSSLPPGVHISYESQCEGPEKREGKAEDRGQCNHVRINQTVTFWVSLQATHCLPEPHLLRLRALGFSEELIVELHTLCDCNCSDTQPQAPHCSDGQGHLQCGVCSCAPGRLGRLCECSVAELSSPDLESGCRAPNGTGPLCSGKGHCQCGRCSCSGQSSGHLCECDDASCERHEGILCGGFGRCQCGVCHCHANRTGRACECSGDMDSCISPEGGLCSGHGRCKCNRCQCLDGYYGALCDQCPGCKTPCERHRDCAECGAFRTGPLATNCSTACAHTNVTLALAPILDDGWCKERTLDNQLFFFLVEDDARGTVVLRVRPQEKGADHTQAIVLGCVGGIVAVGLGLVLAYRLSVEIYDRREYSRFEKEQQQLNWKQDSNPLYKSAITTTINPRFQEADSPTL
Procedure: (3) MAdCAM-1/α4β7 Integrin Binding Inhibitory Activity Evaluation Test in Presence of Serum (1)
Each test substance was measured in terms of an ability to inhibit the MAdCAM-1 binding of a human B cell line, namely, a cell line RPMI-8866, which is known to express α4β7 integrin.
A solution of recombinant mouse MAdCAM-1/Fc (R&D Systems, Inc.) (1 μg/mL) diluted with a buffer A (carbonate buffer, pH 9.6) was added in an amount of 50 μL/well to a 96-well microtiter plate, followed by incubation at 4° C. overnight. After the plate was washed with PBS once, 150 μL/well of Block Ace (Snow Brand Milk Products Co., Ltd.) was added, followed by incubation at room temperature for 2 hours. After removal, the plate was washed with PBS once.
Then, 100 μL of the RPMI-8866 cells (2×10^6 cells/mL) and 100 of the test substance at each of various concentrations diluted with a binding buffer (DMEM containing 40 mM HEPES, 0.2% BSA, and 4 mM MnCl2) were added to the plate coated with the MAdCAM-1/Fc (5×10^5 cells/well) such that 50% human serum was contained at the final concentration. Then, incubation was allowed to proceed at 30° C. for 15 to 60 minutes. After the cells were bound to the wells, the plate was washed with PBS to remove unbound cells. A buffer C (PBS containing 1.5% Triton X-100) was added in an amount 50 μL/well to the plate to lyse the bound RPMI-8866 cells. After 30 μL of a substrate buffer (Promega, CytoTox 96 Non-Radioactive Cytotoxicity Assay) was added to 30 μL of the cell lysate, a reaction was allowed to proceed at room temperature in the dark for 30 minutes. After 30 μL of a stop solution (Promega, CytoTox 96 Non-Radioactive Cytotoxicity Assay) was added to each, and then an absorbance at 490 nm was measured using a plate reader. The absorbance obtained here represents a detection result of an activity of lactate dehydrogenase (LDH) eluted in the supernatant of each well, that is, the absorbance is proportional to the number of RPMI-8866 cells bound to the MAdCAM-1 and thus remaining on the plate. The test was performed in duplicate. Provided that the absorbance of the well containing no test substance was 100%, a cell binding rate with the test substance at each of the various concentrations was figured out, and a concentration IC50 which brought about 50% binding inhibition was calculated.

Row | Compound | pIC50
1 | Cn1c(=O)n(-c2ccc(C[C@H](NC(=O)c3cc(F)c(NS(=O)(=O)c4ccc(NC(=O)c5ccncc5)cc4)cc3F)C(=O)O)cc2)c(=O)c2ccncc21 [Compound A7] | 7.55
2 | Cc1c(C)n(C)c(=O)n(-c2ccc(C[C@H](NC(=O)c3cc(F)c(NS(=O)(=O)c4ccc(NC(=O)C5(O)CC5)cc4)cc3F)C(=O)O)cc2)c1=O [Compound A22] | 7.60
3 | Cn1c(=O)n(-c2ccc(C[C@H](NC(=O)c3cc(F)c(NS(=O)(=O)c4ccc(NC(=O)C5CCNCC5)cc4)cc3F)C(=O)O)cc2)c(=O)c2ccncc21 [Compound A6, (2S)-2-[[2,5-difluoro-4-[[4-(piperidine-4-carbonylamino)phenyl]sulfonylamino]benzoyl]amino]-3-[4-(1-methyl-2,4-dioxo-pyrido[3,4-d]pyrimidin-3-yl)phenyl]propanoic acid] | 7.85
4 | Cc1c(C)n(C)c(=O)n(-c2ccc(C[C@H](NC(=O)c3cc(F)c(NS(=O)(=O)c4ccc(NC(=O)C(C)(C)C)nc4)cc3F)C(=O)O)cc2)c1=O [Compound A25] | 7.32
5 | Cn1c(=O)n(-c2ccc(C[C@H](NC(=O)c3cc(F)c(NS(=O)(=O)c4ccc(NC(=O)C5(c6ccccc6)CC5)cc4)cc3F)C(=O)O)cn2)c(=O)c2ccncc21 [Compound A29] | 7.27
6 | CCC(CC)C(=O)Nc1ccc(S(=O)(=O)Nc2cc(F)c(C(=O)N[C@@H](Cc3ccc(-n4c(=O)c5ccncc5n(C)c4=O)cc3)C(=O)O)cc2F)cc1 [Compound A3] | 8.00
7 | Cc1c(C)n(C)c(=O)n(-c2ccc(C[C@H](NC(=O)c3cc(F)c(NS(=O)(=O)c4cccc(NC(=O)C(C)(C)C)c4)cc3F)C(=O)O)cn2)c1=O [Compound A50] | 7.20
8 | Cn1c2c(c(=O)n(-c3ccc(C[C@H](NC(=O)c4cc(F)c(NS(=O)(=O)c5ccc(NC(=O)C(C)(C)C)cc5)cc4F)C(=O)O)cc3)c1=O)CCOC2 [Compound A27] | 8.62
9 | Cn1c(=O)n(-c2ccc(C[C@H](NC(=O)c3cc(F)c(NS(=O)(=O)c4ccc(NC(=O)C(C)(C)C)cn4)cc3F)C(=O)O)cn2)c(=O)c2ccncc21 [Compound A31] | 8.30
10 | Cc1c(C)n(C)c(=O)n(-c2ccc(C[C@H](NC(=O)c3cc(F)c(NS(=O)(=O)c4ccc(-n5ccc(C6CCOCC6)cc5=O)cc4)cc3F)C(=O)O)cc2)c1=O [Compound A34] | 7.62
11 | Cn1c2c(c(=O)n(-c3ccc(C[C@H](NC(=O)c4cc(F)c(NS(=O)(=O)c5ccc(NC(=O)C(C)(C)C)cc5)cc4F)C(=O)O)nc3)c1=O)CCCC2 [Compound A47] | 7.82
12 | Cc1c(C)n(C)c(=O)n(-c2ccc(C[C@H](NC(=O)c3cc(F)c(NS(=O)(=O)c4ccc(NC(=O)C(C)(C)CO)cc4)cc3F)C(=O)O)cc2)c1=O [Compound A21] | 8.14
13 | Cn1c(=O)n(-c2ccc(C[C@H](NC(=O)c3cc(F)c(NS(=O)(=O)c4ccc(NC(=O)C5(C(F)(F)F)CC5)cc4)cc3F)C(=O)O)cc2)c(=O)c2ccncc21 [Compound A24] | 7.82
14 | Cc1c(C)n(C)c(=O)n(-c2ccc(C[C@H](NC(=O)c3cc(F)c(NS(=O)(=O)c4ccc(NC(=O)C(C)(C)C)s4)cc3F)C(=O)O)cc2)c1=O [Compound A10] | 8.00

Other lines, results leading:

Row | pIC50 | Compound
15 | 7.80 | Cc1cn(C)c(=O)n(-c2ccc(C[C@H](NC(=O)c3cc(F)c(NS(=O)(=O)c4ccc(NC(=O)C(C)(C)C)cc4)cc3F)C(=O)O)nc2)c1=O [Compound A69]
16 | 7.03 | Cn1ccc(=O)n(-c2ccc(C[C@H](NC(=O)c3cc(F)c(NS(=O)(=O)c4ccc(NC(=O)C5(C#N)CC5)cc4)cc3F)C(=O)O)cn2)c1=O [Compound A59]
17 | 8.43 | Cc1c(C)n(C)c(=O)n(-c2ccc(C[C@H](NC(=O)c3cc(F)c(NS(=O)(=O)c4ccc(NC(=O)C(C)(C)C)cc4)cc3F)C(=O)O)cc2)c1=O [Compound A8]
18 | 7.30 | Cc1cn(C)c(=O)n(-c2ccc(C[C@H](NC(=O)c3cc(F)c(NS(=O)(=O)c4ccc(NC(=O)C5CCCC5)cc4)cc3F)C(=O)O)cn2)c1=O [Compound A65]
19 | 7.85 | Cn1ccc(=O)n(-c2ccc(C[C@H](NC(=O)c3cc(F)c(NS(=O)(=O)c4ccc(NC(=O)C(C)(C)C(F)(F)F)cc4)cc3F)C(=O)O)cn2)c1=O [Compound A57]
20 | 8.12 | Cc1cc(=O)n(-c2ccc(C[C@H](NC(=O)c3cc(F)c(NS(=O)(=O)c4ccc(NC(=O)C(C)(C)C)cc4)cc3F)C(=O)O)cc2)c(=O)n1C [Compound A46]
21 | 7.55 | Cc1cc(=O)n(-c2ccc(C[C@H](NC(=O)c3cc(F)c(NS(=O)(=O)c4ccc(NC(=O)C(C)(C)C)cc4)cc3F)C(=O)O)nc2)c(=O)n1C [Compound A72]
22 | 7.21 | CCC(CC)C(=O)Nc1ccc(S(=O)(=O)Nc2cc(F)c(C(=O)N[C@@H](Cc3ccc(-n4c(=O)ccn(C)c4=O)nc3)C(=O)O)cc2F)cc1 [Compound A61]
23 | 8.08 | Cc1cn(C)c(=O)n(-c2ccc(C[C@H](NC(=O)c3cc(F)c(NS(=O)(=O)c4ccc(NC(=O)C(C)(C)C)cc4)cc3F)C(=O)O)cn2)c1=O [Compound A54]
24 | 7.92 | Cc1cn(C)c(=O)n(-c2ccc(C[C@H](NC(=O)c3cc(F)c(NS(=O)(=O)c4ccc(NC(=O)C(C)(C)C(F)(F)F)cc4)cc3F)C(=O)O)cn2)c1=O [Compound A58]
25 | 7.85 | Cn1cc(C(F)(F)F)c(=O)n(-c2ccc(C[C@H](NC(=O)c3cc(F)c(NS(=O)(=O)c4ccc(NC(=O)C(C)(C)C)cc4)cc3F)C(=O)O)cn2)c1=O [Compound A67]
26 | 8.08 | Cc1cc(=O)n(-c2ccc(C[C@H](NC(=O)c3cc(F)c(NS(=O)(=O)c4ccc(NC(=O)C(C)(C)C)cc4)cc3F)C(=O)O)cn2)c(=O)n1C [Compound A45]
